# Assay results as given in patent US5599789A, “Method for the treatment of tumours and sarcomas” (Amrad Corporation Limited, priority 1991, dated 1997).
# Legend:
# Assay type in all cases: cell-based, human
# [1] = tested on: Ewing's Sarcoma cell line Cu-1; experiment: Colony formation in semi-solid agar cultures, Cu-1 cells; settings: Cu-1, 10,000 cells, day 18
# Procedure: (§1) Tumour cells obtained from biopsy and bone marrow specimens from patients with Ewing's Sarcoma were used in these studies. Approval for this project has been obtained from the Ethics Committee of the Royal Children's Hospital.
# (§2) Single cell suspensions of tumour cells were obtained by mechanical disruption with an 18G or 21G needle or by pipetting, followed by incubation with dispase II (Boehringer) at a concentration of 1.2 units per ml for 10 minutes at 37° C. Prior to the addition to agar-medium the cells were vortexed gently to prevent clumping.
# (§3) Clonal cell lines were grown in Iscove's Modified Dulbecco's Medium (IMDM) supplemented with 10% v/v foetal calf serum (FCS; CSL Limited, Melbourne, Australia) and were passaged either weekly or twice weekly. The characteristics of the Ewing Sarcoma cell lines used herein as described below:
# (§4) Cell lines derived from the above primary cell lines (Al and Cu) are identified by an Arabic numeral (e.g. Al-1, Al-5, Al-8 or Cu-1).
# (§5) The tumour cells were immobilised in 0.3% w/v agar containing Iscove's Modified Dulbecco's Medium (IMDM) and 10% v/v FCS. […] Cultures were scored for the presence of colonies (>40 cells) or clusters (<40 cells). The number of cells plated per culture ranged from 500 to 10,000 per ml. Colonies were counted on an Olympus dissecting microscope.
# (§6) IL-1, IL-3, IL-4, IL-6, M-CSF, G-CSF, GM-CSF, Stem Cell Factor (SCF), TNFα, TGFα, TGFβ, EGF, aFGF, bFGF, NGF, IGF I, IGF II, PDGF and IFN-γ.
# (§7) The recombinant human leukaemia inhibitory factor (LIF) was obtained from AMRAD Corporation Limited, Melbourne, Australia.
# [2] = tested on: Ewing's Sarcoma cell line Al-1; experiment: Colony formation in semi-solid agar cultures, Al-1 cells; settings: day 18
# Procedure: as §1, §2, §3, §4, §5, §6, §7
# [3] = tested on: Ewing's Sarcoma cell line Al-8; experiment: Colony formation in semi-solid agar cultures, Al-8 cells; settings: Al-8, 1,000 cells, day 18
# Procedure: as §1, §2, §3, §4, §5, §6, §7
# [4] = tested on: Ewing's Sarcoma cell line Al-5; experiment: Colony formation in semi-solid agar cultures, Al-5 cells; settings: Al-5, 1,000 cells, day 18
# Procedure: as §1, §2, §3, §4, §5, §6, §7
# [5] = tested on: Ewing's Sarcoma cell line Al (uncloned); experiment: Colony formation in semi-solid agar cultures, Al (uncloned) cells; settings: Al(uncloned), 5,000 cells, day 18
# Procedure: as §1, §2, §3, §5, §6, §7
# Ewing's Sarcoma cells = experiment: Colony formation in agar cultures, a number of different Ewing's cell lines (summary statements); settings: doses of Tables 1-3; TNF-α dose far above the physiological dose
# Text: as §5
# [6] = stimulus 100 ng, mean of duplicate colony counts
# [7] = Al-1, 1,000 cells, stimulus 100 ng, mean of duplicate colony counts
# [8] = Al-1, 10,000 cells, stimulus 100 ng, mean of duplicate colony counts
substance,measurement,setting,value
TGFb,Colonies/Cultures,[1]; stimulus 5 ng,385
same,Colonies/Cultures,"[2]; Al-1, 10,000 cells, stimulus 5 ng",540
same,Colonies/Cultures,[3]; stimulus 5 ng,45
same,Colonies/Cultures,[4]; stimulus 5 ng,41
same,Colonies/Cultures,[5]; stimulus 5 ng,175
NGF: commercially available growth factor,Colonies/Cultures,[1]; [6],360
same,Colonies/Cultures,[2]; [7],49
same,Colonies/Cultures,[2]; [8],810
same,Colonies/Cultures,[3]; [6],52
same,Colonies/Cultures,[4]; [6],32
same,Colonies/Cultures,[5]; [6],165
aFGF: commercially available growth factor,Colonies/Cultures,[1]; [6],520
same,Colonies/Cultures,[2]; [7],57
same,Colonies/Cultures,[2]; [8],975
same,Colonies/Cultures,[3]; [6],128
same,Colonies/Cultures,[4]; [6],58
same,Colonies/Cultures,[5]; [6],260
TGFa: commercially available growth factor,Colonies/Cultures,[1]; stimulus 20 ng,390
same,Colonies/Cultures,[3]; stimulus 20 ng,87
same,Colonies/Cultures,[5]; stimulus 20 ng,190
TNFa,Colonies/Cultures,[1]; stimulus 5 ug,190
same,Colonies/Cultures,"[2]; Al-1, 10,000 cells, stimulus 5 ug",2
same,Colonies/Cultures,[3]; stimulus 5 ug,1
same,Colonies/Cultures,[4]; stimulus 5 ug,0
same,Colonies/Cultures,[5]; stimulus 5 ug,39
same,Effect on colony counts of the other factors,Ewing's Sarcoma cells,with the exception of TNF-α showed any effect on colony counts
"SCF: commercially available growth factor, Stem Cell Factor",Colonies/Cultures,[1]; [6],440
same,Colonies/Cultures,[2]; [7],51
same,Colonies/Cultures,[2]; [8],950
same,Colonies/Cultures,[3]; [6],77
same,Colonies/Cultures,[4]; [6],42
same,Colonies/Cultures,[5]; [6],225
PDGF,Colonies/Cultures,[1]; stimulus 30 ng,390
same,Colonies/Cultures,"[2]; Al-1, 1,000 cells, stimulus 30 ng",47
same,Colonies/Cultures,[3]; stimulus 30 ng,72
same,Colonies/Cultures,[4]; stimulus 30 ng,39
same,Colonies/Cultures,[5]; stimulus 30 ng,352
"IL-4: commercially available growth factor, used at 1:3000",Colonies/Cultures,[1]; stimulus 1:3000,325
same,Colonies/Cultures,"[2]; Al-1, 1,000 cells, stimulus 1:3000",47
same,Colonies/Cultures,"[2]; Al-1, 10,000 cells, stimulus 1:3000",720
same,Colonies/Cultures,[3]; stimulus 1:3000,82
same,Colonies/Cultures,[4]; stimulus 1:3000,38
same,Colonies/Cultures,[5]; stimulus 1:3000,165
